# Measured values reported in US8173689B2 (Novartis AG, priority 2006, dated 2012).
# Where two headings read alike, the source gives them in different places.
# Experiments:
# [1] = target: T1, cytoplasmic domain of the human CSF-1R (Homo sapiens, UniProt P07333); assay: In vitro kinase assay for colony stimulating factor-1 receptor (AlphaScreen); type: biochemical; settings: read-out: CSF-1R percent inhibition
# T1 construct: Recombinant protein corresponding to the cytoplasmic domain of the human CSF-1R; purchased Invitrogen Corporation, Carlsbad, Calif; PV3249
# T1 sequence (P07333 539-972 limits assumed): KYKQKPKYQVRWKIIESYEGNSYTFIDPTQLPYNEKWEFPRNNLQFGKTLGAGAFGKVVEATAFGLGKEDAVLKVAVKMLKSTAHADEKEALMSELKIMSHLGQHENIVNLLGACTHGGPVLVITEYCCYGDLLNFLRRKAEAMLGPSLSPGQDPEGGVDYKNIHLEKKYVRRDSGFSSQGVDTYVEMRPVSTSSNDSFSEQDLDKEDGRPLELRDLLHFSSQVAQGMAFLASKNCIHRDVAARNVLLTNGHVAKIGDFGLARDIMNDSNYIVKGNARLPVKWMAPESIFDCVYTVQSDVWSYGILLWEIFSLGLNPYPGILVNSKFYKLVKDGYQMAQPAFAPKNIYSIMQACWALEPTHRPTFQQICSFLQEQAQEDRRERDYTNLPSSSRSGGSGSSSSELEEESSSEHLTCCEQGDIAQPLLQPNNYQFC
# How it was run: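 Tyrosine phosphorylation of a peptide substrate by 4 nM recombinant cytoplasmic-domain enzyme is measured at 1 μM ATP in Mn2+/Mg2+-containing Hepes buffer, pH 7.5. Detection uses PT66 AlphaScreen beads after overnight incubation.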
# kinase domain of PDGFRβ = target: T2, kinase domain of PDGFRβ (Homo sapiens, UniProt P09619); assay: Inhibition of PDGFRb kinase signaling in an in vitro biochemical assay (alphascreen); settings: tested at about 1 μM; read-out: PDGFRβ percent inhibition
# T2 construct: The kinase domain of PDGFRβ was assayed in 50 mM Hepes; purchased Invitrogen P3082
# [2] = target: T3, full-length human CSF-1R receptor (Homo sapiens, UniProt P07333); assay: In vitro inhibition of CSF-1R receptor tyrosine phosphorylation in transfected HEK293H cells stimulated with MCSF; type: cell-based; settings: HEK293-H, read-out: pCSF1R percent inhibition
# T3 construct: transfected with the full-length human CSF-1R receptor cloned in house; expressed in transfected cells; host or cells: HEK293H (Invitrogen Cat. #11631017)
# Protocol: The lysate was then transferred to total CSF-1R antibody coated 96-well plates that had already been blocked with 3% Blocker A from Mesoscale discovery (MSD) for 2 hours and washed afterwards. Lysates were incubated overnight at 4° C. and the plates were then washed 4× with MSD Tris Wash Buffer. […] The plates were read on the Sector 6000 instrument (MSD). Raw data was imported in Abase and EC50s calculated with XL-fit data analysis software.
# kinase domain of cKIT = target: T4, kinase domain of cKIT (Homo sapiens, UniProt P10721); assay: Inhibition of cKIT kinase signaling in an in vitro biochemical assay (alphascreen); settings: tested at about 1 μM; read-out: cKit percent inhibition
# T4 construct: The kinase domain of cKIT was assayed in 50 mM Hepes; purchased Upstate 14-559
# [3] = test system: MNFS60 (murine AML cells); assay: Cell viability assay in MCSF dependent MNFS60 cells (Cell Titer Glo); type: cell-based; settings: Mus musculus, read-out: M-NFS-60 CP percent inhibition
# How it was run: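 Compounds were serially diluted 3-fold in DMSO to 500× final and added to cells with MCSF at 10 ng/ml final. After 72 hrs at 37° C. under 5% CO2, viable cells were quantified by CellTiter-Glo luminescence; triplicate wells gave EC50 values by curve fitting.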
# [4] = tested at about 1 μM, HEK293H cells
# [5] = tested at about 1 μM, MCSF dependent MNFS60 cells
# T4 sequence (P10721 589-937 limits assumed): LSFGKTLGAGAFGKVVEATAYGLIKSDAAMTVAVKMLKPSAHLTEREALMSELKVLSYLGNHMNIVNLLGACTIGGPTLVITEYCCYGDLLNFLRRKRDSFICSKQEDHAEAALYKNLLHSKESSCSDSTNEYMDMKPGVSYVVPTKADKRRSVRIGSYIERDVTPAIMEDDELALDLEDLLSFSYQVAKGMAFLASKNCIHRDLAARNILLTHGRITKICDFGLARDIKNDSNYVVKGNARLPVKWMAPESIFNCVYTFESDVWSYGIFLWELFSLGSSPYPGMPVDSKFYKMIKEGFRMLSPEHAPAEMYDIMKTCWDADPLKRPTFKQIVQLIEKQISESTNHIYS
# T3 sequence (P07333 20-972): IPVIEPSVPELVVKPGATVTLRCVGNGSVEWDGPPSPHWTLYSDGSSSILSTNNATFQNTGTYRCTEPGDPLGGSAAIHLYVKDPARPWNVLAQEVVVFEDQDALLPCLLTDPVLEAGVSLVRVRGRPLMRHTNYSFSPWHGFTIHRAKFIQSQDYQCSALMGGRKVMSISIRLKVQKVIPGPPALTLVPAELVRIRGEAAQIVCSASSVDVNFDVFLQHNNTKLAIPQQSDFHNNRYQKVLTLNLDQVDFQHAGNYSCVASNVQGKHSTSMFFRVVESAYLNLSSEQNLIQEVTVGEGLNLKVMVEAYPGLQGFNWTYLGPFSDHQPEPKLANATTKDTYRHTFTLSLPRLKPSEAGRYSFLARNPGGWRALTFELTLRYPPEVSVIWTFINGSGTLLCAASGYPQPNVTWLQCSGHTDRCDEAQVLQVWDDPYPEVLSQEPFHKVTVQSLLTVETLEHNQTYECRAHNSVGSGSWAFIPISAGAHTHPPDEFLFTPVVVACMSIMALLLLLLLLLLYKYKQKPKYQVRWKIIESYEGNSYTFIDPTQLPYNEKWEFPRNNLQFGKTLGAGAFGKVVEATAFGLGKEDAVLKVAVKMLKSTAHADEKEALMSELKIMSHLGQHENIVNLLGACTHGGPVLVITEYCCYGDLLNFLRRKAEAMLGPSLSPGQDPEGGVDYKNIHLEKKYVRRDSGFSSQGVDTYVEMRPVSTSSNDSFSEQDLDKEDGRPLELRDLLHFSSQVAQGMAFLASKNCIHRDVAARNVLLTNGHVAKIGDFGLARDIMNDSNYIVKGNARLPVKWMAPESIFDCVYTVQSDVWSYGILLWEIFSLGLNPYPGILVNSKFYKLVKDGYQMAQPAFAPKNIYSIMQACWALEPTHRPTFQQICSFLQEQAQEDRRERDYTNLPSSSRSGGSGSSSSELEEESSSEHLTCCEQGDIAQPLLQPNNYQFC
# T2 sequence (P09619 600-962 limits assumed): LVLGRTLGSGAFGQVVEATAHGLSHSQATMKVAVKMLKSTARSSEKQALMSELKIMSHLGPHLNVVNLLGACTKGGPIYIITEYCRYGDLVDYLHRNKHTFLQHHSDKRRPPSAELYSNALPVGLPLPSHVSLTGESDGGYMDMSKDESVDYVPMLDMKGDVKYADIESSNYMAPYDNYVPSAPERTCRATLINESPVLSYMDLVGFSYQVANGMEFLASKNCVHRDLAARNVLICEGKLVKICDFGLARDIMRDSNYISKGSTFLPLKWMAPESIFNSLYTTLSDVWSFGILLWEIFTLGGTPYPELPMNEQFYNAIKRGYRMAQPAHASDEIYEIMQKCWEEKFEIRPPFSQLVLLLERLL
inhibition at 1 µM ([1]; tested at about 1 μM) [%],inhibition at 1 µM (kinase domain of PDGFRβ) [%],"inhibition at 1 µM [2, 4] [%]",inhibition at 1 µM (kinase domain of cKIT) [%],SMILES,"inhibition at 1 µM [3, 5] [%]",inhibition at 1 µM [1] [%],inhibition at 1 µM [2] [%],inhibition at 1 µM [3] [%]
100,0,50,21,"CNC(=O)c1cc(Oc2ccc3nc(N[C@H]4CCCN(C(=O)C5CCCC5)C4)sc3c2)ccn1 [Example 335, (S)-4-(2-(1-(cyclopentanecarbonyl)piper-idin-3-ylamino)benzo[d]thiazol-6-yloxy)-N-methylpicolinamide]",57,,,
100,69,84,66,"CCNc1cc(Oc2ccc3nc(NCC4CCCCC4)sc3c2)ccn1 [Example 339, N-(cyclohexylmethyl)-6-(2-(ethylamino)pyridin-4-yloxy)benzo[d]thiazol-2-amine]",66,,,
100,98,96,100,"Cn1cc(-c2cc(Oc3ccc4nc(NCC5CCCCC5)sc4c3)ccn2)cn1 [Example 340, N-(cyclohexylmethyl)-6-(2-(1-methyl-1H-pyrazol-4-yl)pyridin-4-yloxy)benzo[d]thiazol-2-amine]",100,,,
100,88,96,99,"c1cc(Oc2ccc3nc(NCC4CCCCC4)sc3c2)cc(-c2cn[nH]c2)n1 [Example 341, 6-(2-(1H-pyrazol-4-yl)pyridin-4-yloxy)-N-(cyclohexylmethyl)benzo[d] thiazol-2-amine]",99,,,
100,61,87,84,"c1cc(Oc2ccc3nc(NCC4CCCCC4)sc3c2)cc(-c2ncco2)n1 [Example 342, N-(cyclohexylmethyl)-6-(2-(oxazol-2-yl)pyridin-4-yloxy)benzo[d]thiazol-2-amine]",75,,,
100,13,93,19,"O[C@@H]1CCCC[C@H]1Nc1nc2ccc(Oc3ccnc(-c4cccnc4)c3)cc2s1 [Example 345, (1R,2R)-2-(6-(2,3'-bipyridin-4-yloxy)benzo[d]thiazol-2-ylamino)cyclohexanol]",97,,,
100,0,84,13,"Nc1ncc(-c2cc(Oc3ccc4nc(N[C@@H]5CCCC[C@H]5O)sc4c3)ccn2)cn1 [Example 346, (1R,2R)-2-(6-(2-(2-aminopyrimidin-5-yl)pyridin-4-yloxy)benzo[d]thiazol-2-ylamino)cyclohexanol]",67,,,
100,58,99,37,"Cn1cc(-c2cc(Oc3ccc4nc(N[C@@H](CO)C5CCCCC5)sc4c3)ccn2)cn1 [Example 347, (R)-2-cyclohexyl-2-(6-(2-(1-methyl-1H-pyrazol-4-yl)pyridin-4-yloxy)benzo[d]thiazol-2-ylamino)ethanol]",100,,,
100,55,90,47,"Cn1cc(-c2cc(Oc3ccc4nc(N[C@@H]5c6ccccc6C[C@@H]5O)sc4c3)ccn2)cn1 [Example 348, (1R,2S)-1-(6-(2-(1-methyl-1H-pyrazol-4-yl)pyridin-4-yloxy)benzo[d]thiazol-2-ylamino)-2,3-dihydro-1H-inden-2-ol]",100,,,
100,74,97,45,"CC(C)[C@@H](CO)Nc1nc2ccc(Oc3ccnc(-c4cnn(C)c4)c3)cc2s1 [Example 352, (S)-3-methyl-2-(6-(2-(1-methyl-1H-pyrazol-4-yl)pyridin-4-yloxy)benzo[d]thiazol-2-ylamino)butan-1-ol]",100,,,
100,27,99,27,"CC(C)C[C@H](CO)Nc1nc2ccc(Oc3ccnc(-c4cnn(C)c4)c3)cc2s1 [Example 355, (R)-4-methyl-2-(6-(2-(1-methyl-1H-pyrazol-4-yl)pyridin-4-yloxy)benzo[d]thiazol-2-ylamino)pentan-1-ol]",100,,,
100,19,93,31,"CC(C)Cn1cc(-c2cc(Oc3ccc4nc(N[C@@H]5CCCC[C@H]5O)sc4c3)ccn2)cn1 [Example 359, (1R,2R)-2-(6-(2-(1-isobutyl-1H-pyrazol-4-yl)pyridin-4-yloxy)benzo[d]thiazol-2-ylamino)cyclohexanol]",95,,,
100,16,98,29,"O[C@@H]1CCCC[C@H]1Nc1nc2ccc(Oc3ccnc(-c4cn[nH]c4)c3)cc2s1 [Example 360, (1R,2R)-2-(6-(2-(1H-pyrazol-4-yl)pyridin-4-yloxy)benzo[d]thiazol-2-ylamino)cyclohexanol]",100,,,
100,92,100,99,"Cn1cc(-c2cc(Oc3ccc4nc(N[C@H]5CCCc6ccccc65)sc4c3)ccn2)cn1 [Example 362, (S)-6-(2-(1-methyl-1H-pyrazol-4-yl)pyridin-4-yloxy)-N-(1,2,3,4-tetrahydronaphthalen-1-yl)benzo[d]thiazol-2-amine]",100,,,
100,79,97,100,"CC(C)CCNc1nc2ccc(Oc3ccnc(-c4cnn(C)c4)c3)cc2s1 [Example 365, N-isopentyl-6-(2-(1-methyl-1H-pyrazol-4-yl)pyridin-4-yloxy)benzo[d]thiazol-2-amine]",100,,,
100,7,89,13,"CNC(=O)c1cc(Oc2ccc3nc(N[C@H]4CCCN(S(=O)(=O)C5CC5)C4)sc3c2)ccn1 [Example 367, (S)-4-(2-(1-(cyclopropylsulfonyl)piperidin-3-ylamino)benzo[d]thiazol-6-yloxy)-N-methylpicolinamide]",81,,,
100,34,81,64,"CNC(=O)c1cc(Oc2ccc3nc(NCC4CCCCO4)sc3c2)ccn1 (stereo not shown) [Example 370, N-methyl-4-(2-((tetrahydro-2H-pyran-2-yl)methylamino)benzo[d]thiazol-6-yloxy)picolinamide]",60,,,
100,9,79,29,"O[C@@H]1CCCC[C@H]1Nc1nc2ccc(Oc3ccnc(-c4ccco4)c3)cc2s1 [Example 371, (1R,2R)-2-(6-(2-(furan-2-yl)pyridin-4-yloxy)benzo[d]thiazol-2-ylamino)cyclohexanol]",69,,,
100,8,88,21,"O[C@@H]1CCCC[C@H]1Nc1nc2ccc(Oc3ccnc(-c4ncco4)c3)cc2s1 [Example 372, (1R,2R)-2-(6-(2-(oxazol-2-yl)pyridin-4-yloxy)benzo[d]thiazol-2-ylamino)cyclohexanol]",75,,,

SMILES,inhibition at 1 µM ([1]; tested at about 1 μM) [%],inhibition at 1 µM (kinase domain of PDGFRβ) [%],"inhibition at 1 µM [2, 4] [%]",inhibition at 1 µM (kinase domain of cKIT) [%],"inhibition at 1 µM [3, 5] [%]",inhibition at 1 µM [1] [%],inhibition at 1 µM [2] [%],inhibition at 1 µM [3] [%]
"Cn1cc(-c2cc(Oc3ccc4nc(N[C@@H]5CCCC[C@H]5O)sc4c3)ccn2)cn1 [Example 344, (1R,2R)-2-(6-(2-(1-methyl-1H-pyrazol-4-yl)pyridin-4-yloxy)benzo[d]thiazol-2-ylamino)cyclohexanol]",,65,,45,,100,95,100
